Measured values: patent publication EP1228052B1, “1-CYCLIC AMINO-ALKYLCYCLOHEXANE COMPOUNDS, PHARMACEUTICAL COMPOSITIONS THEREOF, AND THEIR USE AS ANTICONVULSANTS” (Merz Pharma GmbH & Co. KGaA, priority 1999, dated 2001)

What was measured:
[1] = tested on: convulsions induced by maximal electroshock (MES); assay: Convulsions induced by maximal electroshock (MES); type: in vivo; conditions: ip; 95% confidence limits in the next column
Method: (§1) Effect of MRZ 2/705 on convulsions induced by maximal electroshock (MES). […] The therapeutic index (TI) was also calculated as the ED50 for inhibition of traction reflex (Tract.) impairment or rotarod failure (Rot.) divided by the ED50 for MES-induced seizure-induced convulsions.

NMDA-induced currents = NMDA-induced currents in patch clamp experiments; type: cell-based; conditions: at least 3 concentrations, at least 5 cells per concentration
Method: (§2) Effect of MRZ 2/705 on [^3H]-(+)-MK-801 binding, NMDA-induced currents in patch clamp experiments, and glutamate toxicity in cultured cortical neurones. […] IC50s (±SEM) in patch clamp and glutamate toxicity experiments were determined from data from at least 3 concentrations producing between 15 and 85% inhibition and at least 5 cells/well per concentration.

[2] = tested on: cultured cortical neurones; assay: Glutamate toxicity in cultured cortical neurones; type: cell-based; conditions: Cortical neurone, read-out: Glut Tox IC50
Method: as §2

amygdala kindled rats = assay: Amygdala kindling model in fully kindled rats; type: in vivo, Female Wistar rats
Method: The substance MRZ 2/705 was tested in the amygdala kindling model in rats. In this model chronically implanted animals with stimulation and recording electrodes in the amygdala were rendered more susceptible to seizures by repeated initially subconvulsive electrical stimulation (Goddard et al., 1969, Sato el. al, 1990). Once enhanced sensitivity, characterized by generalized motor seizures, has developed, the animal is said to be fully kindled. For substance screening procedures we determine the individual threshold current that induces afterdischarges at the stimulation site.
Female Wistar rats were purchased at a body weight of 200-220g (Harlan Windelmann Versuchstierzucht, Borchen, Germany) and were then kept under controlled environmental conditions (24-25°C, 50-60% humidity, 12h light / dark cycle) with free access to standard laboratory chow (Altromin 1324 standard diet) and tap water. All experiments were performed within the same day time in the morning to minimize possible effects of circadian variation. […] These animals were previously kindled and used to test other compounds. The period between the previous and current studies was long enough (at least one month) so that it was ample time for a complete washout from the previously tested drug.
For implantation of kindling electrodes, rats were anaesthetized with chloral hydrate (360 mg/kg, i/p.), the skull surface was exposed, and a bipolar electrode was implanted into the right hemisphere aimed at the basolateral amygdala using the following sterotaxic coordinates according to the atlas of Paximos and Watson (1986): 2.2 mm caudal, 4.8 mm lateral, 8.5 mm ventral (all respective to bregma). The electrodes consisted of two twisted Teflon-coated stainless steel wires (250 µm diameter) separated by 0.5 mm at the tip. A screw, which served as grounding electrode, was positioned over the left parietal cortex. Bipolar and ground electrodes were connected to plugs, and the electrode assembly and anchor screws were held in place with dental carylic cement applied to the exposed skull surface. After surgery, the rats were treated with antibiotics for 1 week to prevent infection.
Following a post-operative recovery period of two weeks, constant current stimulations (500µA, 1 msec, monophasic square-wave pulses, 50 Hz for 1 s) were delivered to the amygdala once daily (five times per week) until at least 10 sequential fully kindled stage-5 seizures were elicited. Seizure severity (SS) was scored according to Racine (1972): 1 immobility, eye closure, ear twitching, twitching of vibrissae, sniffing, facial clonus; 2 head nodding associated with more severe facial clonus; 3 clonus of one forelimb; 3.5 bilateral clonus without rearing; 4 bilateral clonus accompanied by rearing; 4.5 generalized clonic seizures without rearing and falling (e.g. because of direct loss of balance); 5 rearing and falling accompanied by generalized clonic seizures. In these fully kindled rats afterdischarge threshold (ADT) was determined by administering a series of stimulations at intervals of 1 min. increasing in steps of about 20% of the previously applied current. The afterdischarge threshold was defined as the lowest current intensity producing afterdischarge with a duration of at least 5 s.
In all experiments seizure duration and afterdischarge duration were recorded in addition to seizure severity and afterdischarge threshold. Seizure duration 1 (SD1) was the time period of limbic and/or motor seizures. Limbic seizure activity which sometimes occurred after termination of secondarily generalized seizures was not included in seizure duration. Seizure duration 2 (SD2) was the time period from stimulation until the end of postictal depression phase.
Afterdischarge duration 1 (ADD1) was defined as the period of high amplitude spiking (at least 1 Hz frequency and twice the prestimulation amplitude) in the electroencephalogram (EEG) of the BLA electrode, including the time of stimulation. […]

[3] = Adverse effects in kindled rats (sedation, ataxia, rotarod test); type: in vivo, Female Wistar rats
Method: The substance MRZ 2/705 was dissolved in distilled water and administered i.p. Thereby applicated volume was 3 ml/kg body weight. dosages used in the experiments were 5, 10, and 20 mg/kg.
Animals were allowed to adapt to the laboratory environment, then body temperature was measured and animals were put into open cages for constant observation. 15 and 30 minutes following drug or vehicle administration behavioral alterations and body temperature were determined. Adverse effects were scored during observation in open cages and in an open field. In addition, rats were subjected to the rotarod test (polypropylene, foam-coated rod, 5cm in diameter, 8rpm). Animals were considered to have failed this test, when they fell from the rod in each of three consecutive 1-min. attempts.

rotarod failure (Rot.) = assay: Rotarod failure (for therapeutic index); type: in vivo; conditions: therapeutic index: ED50 for rotarod failure divided by ED50 for MES-induced convulsions
Method: as §1

[^3H]-(+)-MK-801 binding = [3H]-(+)-MK-801 binding; conditions: read-out: MK-801 Ki; means of 3-5 experiments; Cheng-Prusoff, Kd for MK-801 of […]
Method: as §2

[4] = tested on: traction reflex (Tract.) impairment; assay: Traction reflex impairment (for therapeutic index); type: in vivo; conditions: therapeutic index: ED50 for traction reflex impairment divided by ED50 for MES-induced convulsions
Method: as §1

[5] = 20 mg/kg i.p., in a significant manner

Work on `CC1(C)CC(C)(C)CC(C)(N2CCCC2)C1.Cl` [MRZ 2/705, N-(1,3,3,5,5-Pentamethylcyclohexyl) pyrrolidine hydrochloride] yielded an ED50 [1] of 9.55 mg/kg, an IC50 (NMDA-induced currents) of 25.4 µM and an IC50 [2] of 12.3 µM. For the same molecule, the “average increase in afterdischarge threshold above control threshold” value (“average increase” below) (amygdala kindled rats; 5 mg/kg i.p.) was 36%, the “average increase” value (amygdala kindled rats; 10 mg/kg i.p., significant) was 50% and the duration of afterdischarges (amygdala kindled rats; [5]) was “reduced”. For the same molecule, the “duration of motor seizures” value (amygdala kindled rats; [5]) was “reduced”, the seizure severity (amygdala kindled rats; [5]) was “reduced” and the “average increase” value (amygdala kindled rats; 20 mg/kg i.p., significant) was 95%. For the same molecule, the “seizure parameters (seizure severity, duration of motor seizures, duration of afterdischarges)” value (amygdala kindled rats; lower dosages (5 and 10 mg/kg i.p.)) was “remained unchanged or were only influenced slightly”, the rotarod test ([3]; 5, 10, 20 mg/kg i.p., 8 rpm, three consecutive 1-min attempts) was “no failure to pass the rotarod test was observed” and the ataxia ([3]; 10 and 20 mg/kg i.p.) was “Slight ataxia”. For the same molecule, the sedation ([3]; all three dosages (5, 10, 20 mg/kg i.p.)) was “minor signs of sedation”, the “TI Rot.” value (rotarod failure (Rot.)) was 5.4 and the Ki ([^3H]-(+)-MK-801 binding) was 7.14 µM. The “TI Tract” value [4] was 3.9 and the “Min I.ct-hality” value (Minimal lethality i.p.) was greater than 50 mg/kg.
